According to publication PMC5587642, “A Novel Benzocoumarin-Stilbene Hybrid as a DNA ligase I inhibitor with in vitro and in vivo anti-tumor activity in breast cancer models” (Scientific Reports, 2017):

What was measured:
MDA-MB-231 cells = experiment: MTT cell viability assay; format: cell-based, human; settings: for inhibition at 10 µM: Homo sapiens, MDA-MB-231, 48 h, read-out: Antiproliferative activity at 10μM in MDA-MB-231; for inhibition at 10 µM / Antiproliferative activity at 10μM in MDA-MB-231: % inhibition
Procedure: (§1) Cell viability assay was performed as described previously. Briefly, cells were seeded in 96 well plates and treated with different concentrations of compound 19 for 48 h. After drug treatment, MTT reagent was added in each well of the plate and cell viability was quantified by measuring the absorbance at 590 nm.

A549 (Lung) = experiment: MTT cell viability assay; format: cell-based
Procedure: as §1

A172 (Brain) = experiment: MTT cell viability assay; format: cell-based
Procedure: as §1

DLD1 (Colon) = experiment: MTT cell viability assay; format: cell-based
Procedure: as §1

SK-OV-3 (Ovary) = experiment: MTT cell viability assay; format: cell-based
Procedure: as §1

PANC-1 (Pancreas) = experiment: MTT cell viability assay; format: cell-based
Procedure: as §1

PLC/PRF/5 (Liver) = experiment: MTT cell viability assay; format: cell-based
Procedure: as §1

[1] = system: 4T1 (Mouse Breast Cancer); experiment: MTT cell viability assay; format: cell-based; settings: 10 µM
Procedure: as §1

FEN1 protein = target: T1, FEN1 protein (Homo sapiens, UniProt P39748); experiment: Flap cleavage assay; format: biochemical; settings: compound 19 at 5, 10, 20 µM
T1 construct: His-tag (C); made in house; host or cells: E. coli BL21DE3
T1 sequence (P39748 whole entry): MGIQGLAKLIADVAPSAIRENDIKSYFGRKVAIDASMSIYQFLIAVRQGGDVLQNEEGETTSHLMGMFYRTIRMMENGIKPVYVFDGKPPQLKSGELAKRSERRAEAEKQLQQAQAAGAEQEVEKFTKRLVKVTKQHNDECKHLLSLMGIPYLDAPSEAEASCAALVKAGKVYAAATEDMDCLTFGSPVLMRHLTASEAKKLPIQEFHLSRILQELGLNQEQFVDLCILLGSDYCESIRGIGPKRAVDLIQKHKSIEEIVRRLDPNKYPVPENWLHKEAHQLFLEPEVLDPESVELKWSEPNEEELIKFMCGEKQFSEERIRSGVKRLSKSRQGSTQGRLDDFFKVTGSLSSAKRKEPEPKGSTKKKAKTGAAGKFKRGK
Procedure: Purification of FEN 1: Full length FEN1 DNA template was taken from pShuttle-FEN1hWT, a gift from Sheila Stewart (Addgene plasmid#35027) is subcloned into a pET41a expression vector containing C-terminal His-tag. pET41FEN1His freshly transformed into expression host BL21DE3 E. coli cells (Novagene), single colonies picked and inoculated in 5ml of LB media containing 50μg/ml of Kanamycin, grown for 3 to 4 hrs and further subcultured in 100 ml of LB medium containing 50μg/ml of Kanamycin and grown at 37°C till the OD reached to 0.6-0.7, induced at 0.5 mM IPTG at 16°C for 18hrs. Pellets were collected and lysed in 20 mM tris 150 mM NaCl (Lysis buffer) containing 1mM PMSF and 1mM benzamidine hydrochloride and purified by Ni-NTA affinity chromatography.
Flap cleavage assay: All oligos were purchased from Integrated DNA Technologies and dissolved in nuclase free water at concentration of 100μM. FAM-labeled 25+6 Flap-mer (5’-[…]-3’*6FAM)) was annealed with 52- mer (5’-[…]-3’) and 27-mer (5’-[…]-3’) to form a complementary double strand flap cleavage substrate. […] The cleaved and uncleaved DNA molecules are separated on 15% Urea gel and bands were detected by Image Quant LAS 4010 (GE Healthcare).

Row | Structure (SMILES) | inhibition at 10 µM (MDA-MB-231 cells) | melting point | further results
1 | COc1cc(/C=C/c2cc(=O)oc3c2ccc2c(C)cccc23)cc(OC)c1 [Compound 34] | 0.54% | – | –
2 | COc1ccc(/C=C/c2cc(=O)oc3c2ccc2ccccc23)cc1OC [Compound 17] | – | 180 to 182 °C | –
3 | COc1ccc(OC)c(/C=C/c2cc(=O)oc3c2ccc2ccccc23)c1 [Compound 20] | 7.53% | 168 to 170 °C | –
4 | COc1cccc(OC)c1/C=C/c1cc(=O)oc2c1ccc1ccccc12 [Compound 16] | > 50% | 174 to 175 °C | % Inhibition of cell viability at 10 µM, A549 (Lung) (A549 (Lung)): NA (NA= Not active (% Inhibition <30%)); % Inhibition of cell viability at 10 µM, A172 (Brain) (A172 (Brain)): NA (NA= Not active (% Inhibition <30%)); % Inhibition of cell viability at 10 µM, DLD1 (Colon) (DLD1 (Colon)): NA (NA= Not active (% Inhibition <30%)); % Inhibition of cell viability at 10 µM, SK-OV-3 (Ovary) (SK-OV-3 (Ovary)): NA (NA= Not active (% Inhibition <30%)); % Inhibition of cell viability at 10 µM, PANC-1 (Pancreas) (PANC-1 (Pancreas)): NA (NA= Not active (% Inhibition <30%)); % Inhibition of cell viability at 10 µM, PLC/PRF/5 (Liver) (PLC/PRF/5 (Liver)): NA (NA= Not active (% Inhibition <30%)); % Inhibition of cell viability at 10 µM, 4T1 (Mouse Breast Cancer) [1]: 33.89%; % Inhibition of cell viability at 10 µM, MDA-MB-231 (Breast) (MDA-MB-231 cells; 10 µM): 56.48%
5 | COc1ccc(/C=C/c2cc(=O)oc3c2ccc2ccccc23)cc1 [Compound 11] | 1.46% | 142 to 144 °C | –
6 | COc1cccc2c1ccc1c(/C=C/c3ccc(C#N)cc3)cc(=O)oc12 [Compound 25] | 27.9% | 188 to 189 °C | –
7 | N#Cc1ccc(/C=C/c2cc(=O)oc3c2ccc2ccccc23)cc1 [Compound 14] | 12.4% | – | –
8 | Cc1cccc2c1ccc1c(/C=C/c3ccccc3)cc(=O)oc12 [Compound 32] | 18.2% | 178 to 179 °C | –
9 | O=C(O)c1cc[c]([Sb](=[O])([OH])[OH])cc1[N+](=O)[O-] [NSC13755, reference compound] | – | – | Inhibition of FEN1 flap cleavage activity (FEN1 protein): less clevage
10 | COc1cc(/C=C/c2cc(=O)oc3c2ccc2c(OC)cccc23)cc(OC)c1 [Compound 26] | – | – | % Inhibition of cell viability at 10 µM, A549 (Lung) (A549 (Lung)): NA (NA= Not active (% Inhibition <30%)); % Inhibition of cell viability at 10 µM, DLD1 (Colon) (DLD1 (Colon)): NA (NA= Not active (% Inhibition <30%)); % Inhibition of cell viability at 10 µM, PANC-1 (Pancreas) (PANC-1 (Pancreas)): NA (NA= Not active (% Inhibition <30%)); % Inhibition of cell viability at 10 µM, 4T1 (Mouse Breast Cancer) [1]: 36.12%; Antiproliferative activity at 10μM in MDA-MB-231 (MDA-MB-231 cells): 50.03%
11 | CN(C)c1ccc(/C=C/c2cc(=O)oc3c2ccc2ccccc23)cc1 [Compound 12] | – | – | Antiproliferative activity at 10μM in MDA-MB-231 (MDA-MB-231 cells): 4.62%
12 | COc1ccc(/C=C/c2cc(=O)oc3c2ccc2ccccc23)c(OC)c1 [Compound 21] | 0.16% | 181 to 183 °C | –
13 | COc1ccc(OC)c(/C=C/c2cc(=O)oc3c2ccc2c(OC)cccc23)c1 [Compound 29] | 10.4% | – | –
14 | COc1ccc(/C=C/c2cc(=O)oc3c2ccc2c(OC)cccc23)c(OC)c1 [Compound 30] | 17.9% | – | –
15 | COc1cccc(/C=C/c2cc(=O)oc3c2ccc2ccccc23)c1 [Compound 15] | – | 145 to 146 °C | –
16 | COc1cc(/C=C/c2cc(=O)oc3c2ccc2ccccc23)cc(OC)c1OC [Compound 18] | 8.2% | 172 to 173 °C | –
17 | COc1ccc(/C=C/c2cc(=O)oc3c2ccc2c(C)cccc23)cc1OC [Compound 39] | 10.1% | – | –
18 | COc1cc(/C=C/c2cc(=O)oc3c2ccc2c(OC)cccc23)cc(OC)c1OC [Compound 31] | 1.7% | 205 to 206 °C | –
19 | COc1cccc2c1ccc1c(/C=C/c3ccc([N+](=O)[O-])cc3)cc(=O)oc12 [Compound 24] | 20% | 220 to 222 °C | –
20 | COc1ccc(/C=C/c2cc(=O)oc3c2ccc2c(OC)cccc23)cc1 [Compound 23] | 6.04% | 170 to 171 °C | –
21 | COc1ccc(/C=C/c2cc(=O)oc3c2ccc2c(OC)cccc23)cc1OC [Compound 27] | 8.81% | – | –
22 | COc1cccc(OC)c1/C=C/c1cc(=O)oc2c1ccc1c(OC)cccc12 [Compound 28] | – | 178 to 179 °C | –
23 | COc1cccc(OC)c1/C=C/c1cc(=O)oc2c1ccc1c(C)cccc12 [Compound 37] | 11.6% | 160 to 161 °C | –
24 | Cc1cccc2c1ccc1c(/C=C/c3ccc([N+](=O)[O-])cc3)cc(=O)oc12 [Compound 33] | 6.12% | 238 to 239 °C | –
25 | COc1ccc(/C=C/c2cc(=O)oc3c2ccc2c(C)cccc23)c(OC)c1 [Compound 35] | 12.8% | – | –
26 | COc1cc(/C=C/c2cc(=O)oc3c2ccc2c(C)cccc23)cc(OC)c1OC [Compound 38] | 22% | – | –
